Test results published in article PMC10572347, “Structure–Activity Relationships and Antiplasmodial Potencies of Novel 3,4-Disubstituted 1,2,5-Oxadiazoles” (International Journal of Molecular Sciences, 2023).
pIC50: −log10 of the molar value. Read-outs that look alike come from different tables or passages of the source.

Tests used:
P. falciparum NF54 [1] = system: P. falciparum NF54; parameters: method as in PMID 33925485; details: formerly prepared compounds 1–5, cited from earlier work; for pIC50: chloroquine-sensitive strain NF54, read-out: P.f. NF54 IC50
L-6 cells [2] = system: L-6 cells; parameters: method as in PMID 33925485; details: formerly prepared compounds 1–5; read-out: Cytotoxicity L-6 Cells IC50; cited from earlier work
CYP3A4 = CYP3A4 (Homo sapiens, UniProt P08684); assay: Cytochrome P450 3A4 inhibition assay (P450-Glo, Luciferin-IPA); details: recombinant human CYP3A4 Supersomes (+ oxidoreductase + b5), pH 7.4, probe Luciferin-IPA
Sequence of CYP3A4 (P08684 2-503 limits assumed): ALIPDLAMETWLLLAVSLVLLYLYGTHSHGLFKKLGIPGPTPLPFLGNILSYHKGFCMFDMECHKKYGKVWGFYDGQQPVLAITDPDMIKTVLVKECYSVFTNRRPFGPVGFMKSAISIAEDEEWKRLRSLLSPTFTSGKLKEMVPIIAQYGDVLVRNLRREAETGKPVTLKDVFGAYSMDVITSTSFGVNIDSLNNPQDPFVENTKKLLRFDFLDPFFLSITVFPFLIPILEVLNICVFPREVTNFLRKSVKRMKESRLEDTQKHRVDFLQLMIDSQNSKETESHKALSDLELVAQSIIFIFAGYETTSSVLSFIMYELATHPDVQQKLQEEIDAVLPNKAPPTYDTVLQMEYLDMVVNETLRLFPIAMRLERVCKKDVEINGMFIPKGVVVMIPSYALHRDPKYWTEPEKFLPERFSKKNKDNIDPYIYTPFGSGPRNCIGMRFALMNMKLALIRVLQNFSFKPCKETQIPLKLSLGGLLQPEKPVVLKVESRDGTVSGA
Description: The CYP3A4 inhibition assay was performed using 96-well white plates (Greiner Bio-One) at a pH of 7.4. […] Stock solutions were further diluted to a final concentration of 20 µM using water (HPLC grade). The luciferin IPA stock solution (3 mM) was diluted to a final concentration of 0.3 mM using water (HPLC grade). The CYP3A4 reaction mixture was prepared by mixing water (HPLC grade) with potassium phosphate buffer (1 M), luciferin IPA (0.3 mM) and CYP3A4 membrane (1 pmol/µL). The control reaction mixture was prepared using water (HPLC grade), potassium phosphate buffer (1 M), luciferin IPA (0.3 mM) and membrane without CYP activity (1 pmol/µL). Solutions A and B of the NADPH regeneration system were mixed and HPLC grade water was added. The reconstituted luciferin detection reagent was prepared by mixing the reconstituted buffer with esterase with the luciferin detection reagent. Then, solutions of test compounds and standard were added to the wells of the 96-well white plate; each was tested in triplicate. The CYP3A4 reaction mixture was added to each well and the plate was incubated for 10 min at room temperature. After that, the NADPH regeneration system was added, inducing the reaction followed by an incubation time of 10 min at ambient temperature. By adding the reconstituted luciferin detection reagent, the reaction was terminated and a luminescent signal was formed. Luminescence was measured by a SpectraMax M3 UV plate reader (Molecular Devices). The relative light units (RLU) were received from a calibration curve with beetle luciferin. […] The CYP3A4 inhibition (%) was calculated from the RLU.

L-6 cells [3] = assay: In vitro cytotoxicity with L-6 cells (resazurin); assay type: cell-based, rat
Description: (§1) Serial drug dilutions of 11 3-fold dilution steps covering a range from 100 to 0.002 μg/mL were prepared. After 70 h of incubation, the plates were inspected under an inverted microscope to assure the growth of the controls and sterile conditions. […] The plates were read with a Spectramax Gemini XS microplate fluorometer (Molecular Devices Cooperation, Sunnyvale, CA, USA) using an excitation wavelength of 536 nm and an emission wavelength of 588 nm. The IC50 values were calculated by linear regression from the sigmoidal dose inhibition curves using SoftmaxPro software Version 8.2.1 (Molecular Devices Cooperation, Sunnyvale, CA, USA). Podophyllotoxin (Sigma P4405) was used as control.

P. falciparum NF54 [4] = assay: In vitro microplate assay against P. falciparum (3H-hypoxanthine incorporation); assay type: cell-based, Plasmodium falciparum; details: for S.I. = IC50 (Cyt.)/IC50 (P.f.NF54): L-6 cells vs P.f. NF54
Description: In vitro activity against the erythrocytic stages of P. falciparum was determined using a ^3H-hypoxanthine incorporation assay, using the drug sensitive NF54 strain [37]. […] The 96-well plates were incubated in a humidified atmosphere at 37 °C, 4% CO2, 3% O2 and 93% N2. After 48 h, 0.05 mL of ^3H-hypoxanthine (=0.5 µCi) was added to each well of the plate. The plates were incubated for a further 24 h under the same conditions. The plates were then harvested with a Betaplate cell harvester (Wallac, Zurich, Switzerland). The red blood cells were transferred onto a glass fiber filter and washed with distilled water. The dried filters were inserted into a plastic foil with 10 mL of scintillation fluid and counted in a Betaplate liquid scintillation counter (Wallac, Zurich, Switzerland). The IC50 values were calculated from sigmoidal inhibition curves by linear regression using Microsoft Excel. Chloroquine (Sigma C6628) was used as control.

[5] = In vitro cytotoxicity with L-6 cells (resazurin); assay type: cell-based, rat; details: rat
Description: as §1

[6] = rat skeletal myofibroblasts, average of four determinations, read-out: Cytotoxicity L-6 Cells IC50
[7] = Plasmodium falciparum, NF54, chloroquine-sensitive strain NF54, average of four determinations, read-out: P.f. NF54 IC50

| Compound | pIC50 (P. falciparum NF54 [1]) | S.I. = IC50 (Cyt.)/IC50 (P.f.NF54) (P. falciparum NF54 [1]) | pIC50 (L-6 cells [2]) | inhibition at 10 min, 20 µM (CYP3A4) | S.I. = IC50 (Cyt.)/IC50 (P.f.NF54) (P. falciparum NF54 [4]) | other results |
| --- | --- | --- | --- | --- | --- | --- |
| CCOc1ccc(-c2nonc2NC(=O)c2cccc(C(F)(F)F)c2)cc1OCC [Compound 4] | 7.72 | 524.6 | 5.00 | – | – | – |
| CCOc1ccc(-c2nonc2NC(=O)c2cccc(C)c2)cc1OCC [Compound 1, reference compound] | 7.96 | 14,483 | 3.80 | 45% | – | – |
| CCOc1ccc(-c2nonc2NC(=O)c2cccc(F)c2)cc1OCC [Compound 3] | 7.31 | 839.6 | 4.39 | – | – | – |
| COc1cc([C@@H]2c3cc4c(cc3[C@H](O)[C@H]3COC(=O)[C@H]23)OCO4)cc(OC)c1OC [POD, podophyllotoxin, reference compound] | – | – | – | – | – | pIC50 (L-6 cells [3]; [6]): 7.92 |
| N-[4-(4-Fluorophenyl)-3-(trifluoromethyl)-1,2,5-oxadiazol-3-yl]benzamide [Compound 50] | – | – | – | – | – | pIC50 (P. falciparum NF54 [4]; chloroquine-sensitive strain NF54, average of four determinations, read-out: P.f. NF54 IC50): 5.06; pIC50 (L-6 cells [3]): 5.13 |
| CCOc1ccc(-c2nonc2NC(=O)c2ccccc2)cc1OCC [Compound 2] | 7.12 | 1463 | 3.95 | – | – | – |
| CCN(CC)CCCC(C)Nc1ccnc2cc(Cl)ccc12 (stereo not shown) [CQ, chloroquine, reference compound] | – | – | – | – | 9672 | pIC50 (P. falciparum NF54 [4]; Plasmodium falciparum, NF54, read-out: P.f. NF54 IC50): 8.05; pIC50 (L-6 cells [3]; [6]): 4.04 |
| CCOc1ccc(-c2nonc2NC(=O)c2ccc(OC)c(Cl)c2)cc1OCC [Compound 5] | 7.85 | 1431 | 4.70 | – | – | – |
| Cc1cccc(C(=O)Nc2nonc2-c2ccc(Cl)cc2)c1 [Compound 47, N-[4-(4-Chlorophenyl)-1,2,5-oxadiazol-3-yl]-3-methylbenzamide] | – | – | – | 57% | 15.54 | pIC50 (P. falciparum NF54 [4]; [7]): 5.06; IC50 at 72 h [5]: 136 µM; melting point: 165 °C |
| O=C(Nc1nonc1-c1ccc([N+](=O)[O-])cc1)c1cccc(C(F)(F)F)c1 [Compound 40, N-[4-(4-Nitrophenyl)-1,2,5-oxadiazol-3-yl]-3-(trifluoromethyl)benzamide] | – | – | – | 82% | 0.473 | pIC50 (P. falciparum NF54 [4]; [7]): 5.70; IC50 at 72 h [5]: 0.936 µM; melting point: 147 °C |
| O=C(Nc1nonc1-c1ccc([N+](=O)[O-])cc1)c1ccccc1 [Compound 37, N-[4-(4-Nitrophenyl)-1,2,5-oxadiazol-3-yl]benzamide] | – | – | – | 46% | 6.694 | pIC50 (P. falciparum NF54 [4]; [7]): 5.74; IC50 at 72 h [5]: 12.2 µM; melting point: 208 °C |
